Reference: US20230203081A1, “LINCOSAMIDE ANTIBIOTICS AND USES THEREOF” (President and Fellows of Harvard College, priority 2020, published 2023)
≈ marks a conversion by molar mass, not a printed value.

Columns and labels:
Type in all cases: cell-based
E. coli armA = experiment: microbe, parasite or virus in culture; conditions: Escherichia coli, E. coli HAV#056; Clinical, armA
How it was run: (§1)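 Inoculum for broth microdilution was 5×10^5 CFU/mL final, prepared from overnight 35° C blood-agar subcultures (separate handling for streptococcal and anaerobic strains); MICs read by CLSI broth microdilution or agar dilution.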

E. coli ΔTolC = experiment: microbe, parasite or virus in culture; conditions: Escherichia coli, E. coli HAV#038; ΔTolC
How it was run: as §1

S. aureus BAA 977 iErmA = experiment: microbe, parasite or virus in culture; conditions: Staphylococcus aureus, BAA-977 / MRSA
How it was run: as §1

S. aureus MP-549 msrA = experiment: microbe, parasite or virus in culture; conditions: Staphylococcus aureus, MP549MSRA; S. aureus HAV#032, MP-549; MSR(A)
How it was run: as §1

[1] = tested on: broad panel of different clinical isolates; experiment: microbe, parasite or virus in culture
How it was run: as §1

E. coli LptD = experiment: MIC (broth microdilution or agar dilution, CLSI); conditions: Escherichia coli, E. coli HAV#040; LptD; read-out: MIC
How it was run: as §1

K. oxytoca Clinical = experiment: MIC (broth microdilution or agar dilution, CLSI); conditions: Klebsiella oxytoca; K. oxytoca HAV#450; Clinical; read-out: MIC
How it was run: as §1

S. aureus ATCC 29213 = experiment: MIC (broth microdilution or agar dilution, CLSI); conditions: Staphylococcus aureus, ATCC29213, S. aureus HAV#001, ATCC 29213, MP-549; read-out: MIC
How it was run: as §1

S. aureus ATCC 700699 = experiment: MIC (broth microdilution or agar dilution, CLSI); conditions: Staphylococcus aureus, ATCC 700699 / VISA
How it was run: as §1

[2] = tested on: S. aureus ATCC BAA-1707 (MRSA); experiment: MIC (broth microdilution or agar dilution, CLSI); conditions: Staphylococcus aureus; S. aureus HAV#016, ATCC BAA-1707; MRSA; read-out: MIC
How it was run: as §1

S. pneumoniae ATCC 49619 = experiment: MIC (broth microdilution or agar dilution, CLSI); conditions: Streptococcus pneumoniae, ATCC49619, S. pneumoniae HAV#003, ATCC 49619; read-out: MIC
How it was run: as §1

S. pyogenes ATCC 19615 = experiment: MIC (broth microdilution or agar dilution, CLSI); conditions: Streptococcus pyogenes, ATCC19615, S. pyogenes HAV#004, ATCC 19615; read-out: MIC
How it was run: as §1

[3] = tested on: S. pyogenes MMX 946; cErmB; experiment: MIC (broth microdilution or agar dilution, CLSI); conditions: Streptococcus pyogenes; S. pyogenes HAV#035, MMX 946; cErmB, mac-resistant; read-out: MIC
How it was run: as §1

CO/N=C(\C(=O)N[C@@H]1C(=O)N2C(C(=O)O)=C(CSc3nc(=O)c(=O)[nH]n3C)CS[C@H]12)c1csc(N)n1 [Ceftriaxone]
MIC (E. coli armA): ≤ 0.06 µg/mL | MIC (E. coli ΔTolC): ≤ 0.06 µg/mL | MIC (S. aureus BAA 977 iErmA): 2 µg/mL (≈ 3.61 µM) | MIC (S. aureus MP-549 msrA): > 128 µg/mL | MIC ([1]; Acinetobacter baumannii, A. baumannii HAV#651, Clinical): 4 µg/mL (≈ 7.21 µM) | MIC ([1]; Acinetobacter baumannii, A. baumannii HAV#652 Clinical): 16 µg/mL (≈ 28.9 µM) | MIC ([1]; Acinetobacter baumannii, A. baumannii HAV#653, Clinical): 2 µg/mL (≈ 3.61 µM) | MIC ([1]; Acinetobacter baumannii, A. baumannii HAV#654, Clinical): 4 µg/mL (≈ 7.21 µM) | MIC ([1]; Acinetobacter baumannii, A. baumannii HAV#655, Clinical): 64 µg/mL (≈ 115 µM) | MIC ([1]; Acinetobacter baumannii, A. baumannii HAV#656, Clinical): 64 µg/mL (≈ 115 µM) | MIC ([1]; Acinetobacter baumannii, A. baumannii HAV#657, Clinical): 64 µg/mL (≈ 115 µM) | MIC ([1]; Acinetobacter baumannii, A. baumannii HAV#658, Clinical): 16 µg/mL (≈ 28.9 µM) | MIC ([1]; Acinetobacter baumannii, A. baumannii HAV#659, Clinical): 32 µg/mL (≈ 57.7 µM) | MIC ([1]; Acinetobacter baumannii, A. baumannii HAV#660, Clinical): 32 µg/mL (≈ 57.7 µM) | MIC ([1]; Acinetobacter baumannii, A. baumannii HAV#661, Clinical): 2 µg/mL (≈ 3.61 µM) | MIC ([1]; Acinetobacter baumannii, A. baumannii HAV#662, Clinical): 32 µg/mL (≈ 57.7 µM) | MIC ([1]; Acinetobacter baumannii, A. baumannii HAV#663, Clinical): 16 µg/mL (≈ 28.9 µM) | MIC ([1]; Acinetobacter baumannii, A. baumannii HAV#664, Carbapenem R): 64 µg/mL (≈ 115 µM) | MIC ([1]; Enterococcus faecalis, E. faecalis HAV#607, Clinical): > 256 µg/mL | MIC ([1]; Enterococcus faecalis, E. faecalis HAV#608, Clinical): > 256 µg/mL | MIC ([1]; Enterococcus faecalis, E. faecalis HAV#609, Clinical): > 256 µg/mL | MIC ([1]; Enterococcus faecalis, E. faecalis HAV#610, Clinical): > 256 µg/mL | MIC ([1]; Enterococcus faecalis, S. faecalis 5060, Line R & Vanco R): > 256 µg/mL | MIC ([1]; Enterococcus faecalis, S. faecalis 5074, Line R): 256 µg/mL (≈ 462 µM) | MIC ([1]; Enterococcus faecalis, VRE, E. faecalis HAV#606, Clinical): > 256 µg/mL | MIC ([1]; Enterococcus faecium, E. faecium HAV#327, Clinical): 0.5 µg/mL (≈ 0.902 µM) | MIC ([1]; Enterococcus faecium, E. faecium HAV#328, Clinical): > 128 µg/mL | MIC ([1]; Enterococcus faecium, E. faecium HAV#329, Clinical): > 256 µg/mL | MIC ([1]; Escherichia coli, E. coli HAV#503, Clinical): > 128 µg/mL | MIC ([1]; Escherichia coli, E. coli HAV#511, Clinical): 16 µg/mL (≈ 28.9 µM) | MIC ([1]; Escherichia coli, E. coli HAV#512, Clinical): < 0.06 µg/mL | MIC ([1]; Escherichia coli, E. coli HAV#513, Clinical): 0.125 µg/mL (≈ 0.225 µM) | MIC ([1]; Escherichia coli, E. coli HAV#514, Clinical): 0.125 µg/mL (≈ 0.225 µM) | MIC ([1]; Escherichia coli, E. coli HAV#516, ESBL-producing): 64 µg/mL (≈ 115 µM) | MIC ([1]; Klebsiella pneumoniae, K. pneumoniae HAV#404, Clinical): 64 µg/mL (≈ 115 µM) | MIC ([1]; Klebsiella pneumoniae, K. pneumoniae HAV#405, Clinical): 64 µg/mL (≈ 115 µM) | MIC ([1]; Klebsiella pneumoniae, K. pneumoniae HAV#406, Clinical): < 0.06 µg/mL | MIC ([1]; Klebsiella pneumoniae, K. pneumoniae HAV#407, Clinical): 1 µg/mL (≈ 1.8 µM) | MIC ([1]; Klebsiella pneumoniae, K. pneumoniae HAV#408, Clinical): 2 µg/mL (≈ 3.61 µM) | MIC ([1]; Klebsiella pneumoniae, K. pneumoniae HAV#409, ESBL-producing): 128 µg/mL (≈ 231 µM) | MIC ([1]; Neisseria gonorrhoeae, N. gonorrhoeae HAV#701, Clinical): 0.125 µg/mL (≈ 0.225 µM) | MIC ([1]; Neisseria gonorrhoeae, N. gonorrhoeae HAV#702, Clinical): 0.25 µg/mL (≈ 0.451 µM) | MIC ([1]; Staphylococcus aureus, MRSA, S. aureus HAV#017, MRSA Col(Colindale, England)): > 128 µg/mL | MIC ([1]; Staphylococcus aureus, MRSA, S. aureus HAV#218, Line R): 32 µg/mL (≈ 57.7 µM) | MIC ([1]; Staphylococcus aureus, MRSA, S. aureus HAV#220, Line R): > 128 µg/mL | MIC ([1]; Staphylococcus aureus, MSSA, S. aureus HAV#219, Line R): 2 µg/mL (≈ 3.61 µM) | MIC ([1]; Staphylococcus aureus, S. aureus HAV#052, mecA, norA, fosB, blaZ): 64 µg/mL (≈ 115 µM) | MIC ([1]; Staphylococcus aureus, S. aureus HAV#053 mecA, norA, fosB): 128 µg/mL (≈ 231 µM) | MIC ([1]; Staphylococcus aureus, S. aureus HAV#054, mecA, norA, spcl, aad1, fosB, ermA, aac6′-aph2″, blaZ): > 256 µg/mL | MIC ([1]; Staphylococcus aureus, S. aureus HAV#211, Clinical): > 64 µg/mL | MIC ([1]; Staphylococcus aureus, S. aureus HAV#212, Clinical): 32 µg/mL (≈ 57.7 µM) | MIC ([1]; Staphylococcus aureus, S. aureus HAV#213, Clinical): 1 µg/mL (≈ 1.8 µM) | MIC ([1]; Staphylococcus aureus, S. aureus HAV#214, Clinical): 4 µg/mL (≈ 7.21 µM) | MIC ([1]; Staphylococcus aureus, S. aureus HAV#215, Clinical): 1 µg/mL (≈ 1.8 µM) | MIC ([1]; Staphylococcus aureus, S. aureus HAV#216, Clinical, cfr): 128 µg/mL (≈ 231 µM) | MIC ([1]; Staphylococcus aureus, S. aureus HAV#217, cfr): 64 µg/mL (≈ 115 µM) | MIC ([1]; Staphylococcus epidermidis, S. epidermidis HAV# 275 Clinical, cfr): > 128 µg/mL | MIC ([1]; Staphylococcus epidermidis, S. epidermidis HAV# 276, cfr): > 128 µg/mL | MIC ([1]; Staphylococcus epidermidis, S. epidermidis HAV#277, Line R): > 128 µg/mL | MIC ([1]; Staphylococcus epidermidis, S. epidermidis HAV#278 Line R): > 128 µg/mL | MIC ([1]; Staphylococcus epidermidis, S. epidermidis HAV#279, Line R): 4 µg/mL (≈ 7.21 µM) | MIC ([1]; Staphylococcus haemolyticus, S. haemolyticus 5052, Line R & Methicillin R): > 256 µg/mL | MIC ([1]; Streptococcus pneumoniae, ATCC700673, S. pneumoniae HAV#352, ATCC 700673, MDR): 1 µg/mL (≈ 1.8 µM) | MIC ([1]; Streptococcus pneumoniae, ATCCBAA255, S. pneumoniae HAV#354, ATCC-BAA-255): 1 µg/mL (≈ 1.8 µM) | MIC ([1]; Streptococcus pneumoniae, ATCCBAA334, S. pneumoniae HAV#353, ATCC-BAA-334): 1 µg/mL (≈ 1.8 µM) | MIC ([1]; Streptococcus pneumoniae, S. pneumoniae HAV#356, Clinical): 1 µg/mL (≈ 1.8 µM) | MIC ([1]; Streptococcus pneumoniae, S. pneumoniae HAV#358, Clinical): 1 µg/mL (≈ 1.8 µM) | MIC (E. coli LptD): ≤ 0.06 µg/mL | MIC (K. oxytoca Clinical): 64 µg/mL (≈ 115 µM) | MIC (S. aureus ATCC 29213): 2 µg/mL (≈ 3.61 µM) | MIC (S. aureus ATCC 700699): > 128 µg/mL | MIC [2]: 64 µg/mL (≈ 115 µM) | MIC (S. pneumoniae ATCC 49619): 0.06 µg/mL (≈ 0.108 µM) | MIC (S. pyogenes ATCC 19615): 0.06 µg/mL (≈ 0.108 µM) | MIC [3]: ≤ 0.03 µg/mL
